Data as given in patent US20180042930A1, “METHODS OF TREATMENT OF MALIGNANCIES” (Celgene Corporation, priority 2016, published 2018).

Columns and labels:
MDS and mIDH2 [1] = assay: Example 2: clinical response to COMPOUND A monotherapy (IWG 2006 MDS criteria), survival; type: in vivo, human
Excerpt: (§1) Cheson et al., Blood. 108:419-425 (2006). […] Overall survival (OS) was estimated using Kaplan-Meier methods.

MDS and mIDH2 [2] = assay: Example 3: clinical response to COMPOUND A monotherapy (IWG 2006 MDS criteria), survival; type: in vivo, human
Excerpt: as §1

[3] = test system: patients with MDS and mIDH2; assay: Example 2: safety, treatment-emergent adverse events; type: in vivo, human
Excerpt: (§2) A DLT was defined as outlined below.
as §1

[4] = test system: MDS and mIDH2 with co-occurring gene mutations; assay: Example 3: association of co-occurring somatic mutations (FoundationOne Heme panel) with response to COMPOUND A; type: in vivo, human
Experimental: as §1
Analysis of MDS patients for association of gene mutations found with overall response rate (ORR) was performed on patients who received COMPOUND A and where a clinical response was captured for at least one time point during treatment (Table 12). An average of 2.6 genes were mutated in each patient beyond IDH2.

[5] = test system: advanced hematologic malignancies with an IDH2 mutation; assay: Phase 1/2 study of orally administered COMPOUND A: clinical activity (overall response rate); type: in vivo, human; conditions: 44 subjects treated at 100 mg QD; preliminary efficacy data
Excerpt: This was a Phase 1/2, multicenter, open-label, 3-part (Phase 1 dose escalation, Phase 1 Part 1 Expansion, and Phase 2), safety, PK/PD, and clinical activity evaluation of orally administered COMPOUND A in subjects with advanced hematologic malignancies, for example MDS, that harbor an IDH2 mutation. The study included a dose escalation phase to determine MTD/MAD and/or RP2D, an expansion phase (Part 1) to further evaluate the safety, tolerability, and clinical activity of COMPOUND A, and a Phase 2 to assess the clinical efficacy of COMPOUND A at the RP2D and to further evaluate safety in subjects with refractory and relapsed AML carrying an IDH2 mutation.
Subjects in the dose escalation phase and Part 1 Expansion had the extent of their disease assessed, including bone marrow biopsies and/or aspirates and peripheral blood, at screening, on C1D15, C2D1, and C3D1, every 28 days (peripheral blood only) or every 56 days (bone marrow biopsies and/or aspirates and peripheral blood) thereafter while on study drug treatment, independent of dose delays and/or dose interruptions, and/or at any time when progression of disease was suspected. Response to treatment and treatment decisions in all subjects was determined by the Investigators based on modified International Working Group (IWG) response criteria or other appropriate response criteria for the malignancy under study. […]

2-HG plasma levels = assay: Phase 1/2 study: pharmacodynamic response, 2-HG plasma levels; type: in vivo, human
Experimental: Dose Escalation Phase: The dose escalation phase utilized a standard “3+3” design. During the dose escalation phase, consented eligible subjects with relapsed or refractory acute myelogenous leukemia (AML), untreated AML≧60 years of age who were not candidates for standard therapy, or myelodysplastic syndrome with refractory anemia with excess blasts were enrolled into sequential cohorts of increasing doses of COMPOUND A not to exceed 650 mg QD dose. Each dose cohort enrolled a minimum of 3 subjects. The first 3 subjects enrolled in each dosing cohort during the dose escalation portion of the study received a single dose of study drug on Day −3 (i.e., 3 days prior to the start of daily dosing) and underwent safety and PK/PD assessments over 72 hours to evaluate drug concentrations and 2-HG and α-KG levels. The next dose of study drug was on Cycle 1 Day 1 (C1D1) at which time daily dosing began. The initial dosing schedule was twice daily (approximately every 12 hours). Based on the emerging data, a once daily dosing schedule also has been implemented. […]
Subjects in the dose escalation phase and Part 1 Expansion also underwent PK/PD assessments over a 10-hour period on C1D15, C2D1, and C4D1. […] Available bone marrow biopsy samples also were assessed for 2-HG and α-KG levels. […]

[6] = test system: subjects with advanced hematologic malignancies with an IDH2 mutation; assay: Phase 1/2 study: safety profile (AEs, NCI CTCAE); type: in vivo, human; conditions: 100 mg
Excerpt: as §2
Monitoring of AEs, including determination of DLTs, serious adverse events (SAEs), and AEs leading to discontinuation; safety laboratory parameters; physical examination findings; vital signs; 12-lead ECGs; LVEF; and ECOG PS.

[7] = test system: patients with MDS and mIDH2; assay: Example 3: safety, treatment-emergent adverse events
Excerpt: Patients were relapsed or refractory to prior MDS therapy (Tx) or were not candidates for standard therapies. […] Evaluable patients required a response assessment at Cycle 2 Day 1 or later, or discontinued before assessment. Overall survival (OS) was estimated using Kaplan-Meier methods. Next-generation sequencing identified pre-existing co-occurring genomic alterations using the FoundationOne Heme test on purified mononuclear cells from BM or PB, to assess relationships between co-mutational status and clinical response.

[8] = 10 evaluable pts with prior HMA Tx
[9] = evaluable pts had ≧5% BM blasts at baseline
[10] = sustained ≧4 weeks, from beginning COMPOUND A Tx
[11] = 13 patients with prior HMA therapy
[12] = IWG 2006, denominators reflect eligibility
[13] = investigator-assessed, evaluable patients had ≧5% bone marrow blasts at baseline
[14] = programmatically adjudicated per IWG 2006 criteria, denominators reflect eligibility

## CC(C)(O)CNc1nc(Nc2ccnc(C(F)(F)F)c2)nc(-c2cccc(C(F)(F)F)n2)n1.CS(=O)(=O)O [COMPOUND A, mesylate salt of 2-methyl-1-[(4-[6-(trifluoromethyl)pyridin-2-yl]-6-{[2-(trifluoromethyl)pyridin-4-yl]amino}-1,3,5-triazin-2-yl)amino]propan-2-ol]
MDS and mIDH2 [1]; 4 pts with no prior MDS Tx
  responses in pts with no prior MDS Tx: a PR and mCR (1 each)
MDS and mIDH2 [1]; [8]
  pts with a response among pts who had received prior HMA Tx: 5 pts
  response rate among pts who had received prior HMA Tx: 50%
MDS and mIDH2 [1]; MDS pts N=16
  Best response Hematologic Improvement: (27) %
  Best response Hematologic Improvement, pts/evaluable: 4/15
MDS and mIDH2 [1]; MDS pts N=16, oral 60-300 mg daily, 28-day cycles
  Overall response rate (CR + PR + mCR + HI), responders/evaluable: 8/15
MDS and mIDH2 [1]; [9]
  Best response Complete Remission: (11) %
  Best response Marrow CR: (22) %
  Best response Marrow CR, pts/evaluable: 2/9
  Best response Partial Remission: (11) %
  Best response Partial Remission, pts/evaluable: 1/9
MDS and mIDH2 [1]; median follow-up of 4.7 months, Kaplan-Meier
  Median OS: not reached
MDS and mIDH2 [1]; [10]
  Median time to CR, PR, or mCR: 24 days
  time to CR, PR, or mCR, range: 17 to 87 days
MDS and mIDH2 [1]; sustained ≧8 weeks
  Median time to HI: 11 days
  time to HI, range: 11 to 60 days
MDS and mIDH2 [2]; [11]
  patients with a response among patients who had received prior HMA therapy: 7 patients
  response rate among patients who had received prior HMA therapy: 54%
MDS and mIDH2 [2]; [12]
  HI-E: 20%
  HI-E, patients/eligible: 3/15
  HI-N: 40%
  HI-N, patients/eligible: 4/10
  HI-P: 33%
  HI-P, patients/eligible: 4/12
MDS and mIDH2 [2]; MDS patients N=17
  Overall response rate (CR + PR + mCR + HI): 59%
  Overall response rate (CR + PR + mCR + HI), responders/evaluable: 10/17
MDS and mIDH2 [2]; [13]
  Best response Complete Remission: 9%
  Best response Complete Remission, patients/evaluable: 1/11
  Best response Marrow CR: 27%
  Best response Marrow CR, patients/evaluable: 3/11
  Best response Partial Remission: 9%
  Best response Partial Remission, patients/evaluable: 1/11
MDS and mIDH2 [2]; median follow-up of 7.5 months
  median overall survival: not reached
MDS and mIDH2 [2]; of patients who attained HI
  patients with bilineage improvement: 2 patients
  patients with trilineage improvement: 2 patients
MDS and mIDH2 [2]; [14]
  Any Hematologic Improvement (HI): 29%
  Any Hematologic Improvement (HI), patients/eligible: 5/17
MDS and mIDH2 [2]; treated MDS patients
  median time to response: 21 days
  time to response, range: 10 to 87 days
[3]; MDS pts N=16
  Grade 3-4 TEAE hyperbilirubinemia (unconjugated): 5 n
  Grade 3-4 TEAE hypokalemia: 3 n
  Grade 3-4 TEAE pneumonia: 4 n
  Grade 3-4 TEAE thrombocytopenia: 3 n
  Grade 3-4 treatment-emergent AEs (TEAEs): 81%
  Grade 3-4 treatment-emergent AEs (TEAEs), pts: 13 pts
  grade 3-4 drug-related TEAE: 44%
  grade 3-4 drug-related TEAE, pts: Seven
[3]; MDS pts with mIDH2
  tolerability of daily oral monotherapy: well tolerated
[4]; ASXL1 mutation
  ORR OR: 2.500
[4]; KRAS mutation
  ORR OR: 0.214
[4]; MDS patients with mIDH2
  clinical responses (≧HI) by co-occurring mutation: observed in the presence of all mutations except TP53, U2AF1, SETBP1, TCF3, STAG2, NRAS, JAK2 and BRAF
  mutations enriched in MDS patients with clinical response (≧HI): patients with mutations in SRSF2, MPL and ASXL1 are enriched
[4]; MPL mutation
  ORR OR: 4.231
[4]; SETBP1 mutation
  ORR OR: 0.082
[4]; SRSF2 mutation
  ORR OR: 12.000
[4]; TP53 mutation
  ORR OR: 0.082
[4]; U2AF1 mutation
  ORR OR: 0.082
[4]; patients with ASXL1 mutation
  ORR: 0.714
[4]; patients with KRAS mutation
  ORR: 0.333
[4]; patients with MPL mutation
  ORR: 1.000
[4]; patients with SETBP1 mutation
  ORR: 0.000
[4]; patients with SRSF2 mutation
  ORR: 0.857
[4]; patients with TP53 mutation
  ORR: 0.000
[4]; patients with U2AF1 mutation
  ORR: 0.000
[5]
  overall response rate: 36.4%
2-HG plasma levels; most subjects with R140Q mutation, all doses, sustained reduction by Day 1 of Cycle 2
  inhibition of 2-HG plasma levels: up to 98%
2-HG plasma levels; subjects with R172K mutation
  exposure and inhibition of 2-HG versus dose: Increasing dose was associated with higher exposure and inhibition of 2-HG
[6]
  safety profile, including ≧Grade 3: consistent with that of lower doses
[7]; MDS patients n=17
  Grade 3-4 TEAE Anemia: 18%
  Grade 3-4 TEAE Dyspnea: 12%
  Grade 3-4 TEAE Tumor lysis syndrome: 12%
  Grade 3-4 TEAE hypokalemia: 18%
  Grade 3-4 TEAE pneumonia: 24%
  Grade 3-4 TEAE thrombocytopenia: 24%
  Grade 3-4 treatment-emergent AEs (TEAEs): 82%
  Grade 3-4 treatment-emergent AEs (TEAEs), patients: 14 patients
  grade 3-4 drug-related TEAE, patients: Six
  treatment related deaths: No treatment related deaths were reported
[7]; n=17, tumor lysis syndrome [2], blood bilirubin increased, transaminitis
  COMPOUND A-related serious TEAEs, patients: 4 patients
[7]; n=17, unconjugated, includes hyperbilirubinemia and blood bilirubin increased
  Grade 3-4 TEAE Hyperbilirubinemia: 30%
